PubChem BioAssay (NCI)
Values joined by “and” are separate entries in the source; they are usually repeats but may differ in a detail not shown here. Identical values can stand only once.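 How tested: cells in 96-well plates exposed to compound for 48 hours at five concentrations. GI50 = concentration required for 50% inhibition of growth. At the TGI there is no net growth.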

How the values were obtained:
Test in all cases: NCI tumour cell line growth inhibition, 48 h
OVCAR-8 ovarian = tested on: OVCAR-8 ovarian
M19-MEL melanoma = tested on: M19-MEL melanoma
HT29 colon = tested on: HT29 colon
HS 578T breast = tested on: HS 578T breast
DMS 273 small cell lung = tested on: DMS 273 small cell lung
HL-60(TB) leukemia = tested on: HL-60(TB) leukemia
A498 renal = tested on: A498 renal
SNB-75 CNS = tested on: SNB-75 CNS
CAKI-1 renal = tested on: CAKI-1 renal
SK-MEL-28 melanoma = tested on: SK-MEL-28 melanoma
SK-MEL-2 melanoma = tested on: SK-MEL-2 melanoma
HCT-15 colon = tested on: HCT-15 colon
UACC-62 melanoma = tested on: UACC-62 melanoma
SR leukemia = tested on: SR leukemia
EKVX NSCLC = tested on: EKVX NSCLC
M14 melanoma = tested on: M14 melanoma
PC-3 prostate = tested on: PC-3 prostate
HOP-18 NSCLC = tested on: HOP-18 NSCLC
TK-10 renal = tested on: TK-10 renal
P388/ADR leukemia = tested on: P388/ADR leukemia
MDA-MB-231 breast = tested on: MDA-MB-231 breast
LOX IMVI melanoma = tested on: LOX IMVI melanoma
KM20L2 colon = tested on: KM20L2 colon
OVCAR-3 ovarian = tested on: OVCAR-3 ovarian
DMS 114 small cell lung = tested on: DMS 114 small cell lung
K-562 leukemia = tested on: K-562 leukemia
MDA-N = tested on: MDA-N
SK-MEL-5 melanoma = tested on: SK-MEL-5 melanoma
OVCAR-5 ovarian = tested on: OVCAR-5 ovarian
RPMI-8226 leukemia = tested on: RPMI-8226 leukemia
NCI-H460 lung = tested on: NCI-H460 lung
786-0 renal = tested on: 786-0 renal
T-47D breast = tested on: T-47D breast
U251 CNS = tested on: U251 CNS
NCI-H522 lung = tested on: NCI-H522 lung
HOP-62 NSCLC = tested on: HOP-62 NSCLC
DU-145 prostate = tested on: DU-145 prostate
MDA-MB-435 = tested on: MDA-MB-435
COLO 205 colon = tested on: COLO 205 colon
SW-620 colon = tested on: SW-620 colon
KM12 colon = tested on: KM12 colon
P388 leukemia = tested on: P388 leukemia
HOP-92 NSCLC = tested on: HOP-92 NSCLC
SN12K1 renal = tested on: SN12K1 renal
BT-549 breast = tested on: BT-549 breast
HCC-2998 colon = tested on: HCC-2998 colon
SF-268 CNS = tested on: SF-268 CNS
SF-539 CNS = tested on: SF-539 CNS
SN12C renal = tested on: SN12C renal
MALME-3M melanoma = tested on: MALME-3M melanoma
OVCAR-4 ovarian = tested on: OVCAR-4 ovarian
UO-31 renal = tested on: UO-31 renal
SNB-19 CNS = tested on: SNB-19 CNS
NCI-H226 lung = tested on: NCI-H226 lung
ACHN renal = tested on: ACHN renal
RXF 393 renal = tested on: RXF 393 renal
NCI/ADR-RES ovarian = tested on: NCI/ADR-RES ovarian
CCRF-CEM leukemia = tested on: CCRF-CEM leukemia
UACC-257 melanoma = tested on: UACC-257 melanoma
IGROV1 ovarian = tested on: IGROV1 ovarian
A549 NSCLC = tested on: A549 NSCLC
SF-295 CNS = tested on: SF-295 CNS
MCF7 breast = tested on: MCF7 breast
MOLT-4 leukemia = tested on: MOLT-4 leukemia
SK-OV-3 ovarian = tested on: SK-OV-3 ovarian
DLD-1 colon = tested on: DLD-1 colon
SNB-78 CNS = tested on: SNB-78 CNS
HCT-116 colon = tested on: HCT-116 colon
NCI-H23 lung = tested on: NCI-H23 lung

## Nc1ccc2c(c1)CN1C(=O)c3ccccc3C1=N2
OVCAR-8 ovarian
  TGI: 115 µM
M19-MEL melanoma
  GI50: 54.8 µM
  TGI: > 125 µM
HT29 colon
  GI50: 19.2 µM
  TGI: > 125 µM
HS 578T breast
  TGI: > 76 µM
DMS 273 small cell lung
  TGI: > 125 µM
HL-60(TB) leukemia
  GI50: 15.5 µM
  TGI: > 125 µM
A498 renal
  TGI: 104 µM
SNB-75 CNS
  TGI: 69.5 µM
CAKI-1 renal
  TGI: > 70.3 µM
SK-MEL-28 melanoma
  TGI: > 125 µM
SK-MEL-2 melanoma
  TGI: > 125 µM
HCT-15 colon
  GI50: 42.4 µM
  TGI: > 125 µM
UACC-62 melanoma
  GI50: 52.9 µM
  TGI: > 116 µM
SR leukemia
  GI50: 26.4 µM
  TGI: > 125 µM
EKVX NSCLC
  GI50: 72.2 µM
  TGI: > 125 µM
M14 melanoma
  TGI: > 125 µM
PC-3 prostate
  TGI: > 125 µM
HOP-18 NSCLC
  TGI: > 125 µM
TK-10 renal
  GI50: 16.8 µM
  TGI: > 125 µM
P388/ADR leukemia
  TGI: > 125 µM
MDA-MB-231 breast
  TGI: 123 µM
LOX IMVI melanoma
  TGI: > 125 µM
KM20L2 colon
  TGI: > 125 µM
OVCAR-3 ovarian
  GI50: 98.8 µM
  TGI: > 125 µM
DMS 114 small cell lung
  TGI: > 125 µM
K-562 leukemia
  GI50: 52.4 µM
  TGI: > 125 µM
MDA-N
  TGI: > 125 µM
SK-MEL-5 melanoma
  TGI: 90.9 µM
OVCAR-5 ovarian
  TGI: > 112 µM
RPMI-8226 leukemia
  GI50: 34.1 µM
  TGI: > 125 µM
NCI-H460 lung
  TGI: > 125 µM
786-0 renal
  GI50: 36.8 µM
  TGI: > 125 µM
T-47D breast
  TGI: > 125 µM
U251 CNS
  GI50: 35.7 µM
  TGI: 121 µM
NCI-H522 lung
  GI50: 12.8 µM
  TGI: 112 µM
HOP-62 NSCLC
  GI50: 45.7 µM
  TGI: 23.8 µM
DU-145 prostate
  TGI: > 125 µM
MDA-MB-435
  TGI: > 125 µM
COLO 205 colon
  GI50: 33.9 µM
  TGI: > 125 µM
SW-620 colon
  TGI: > 125 µM
KM12 colon
  GI50: 37.9 µM
  TGI: > 125 µM
P388 leukemia
  TGI: > 125 µM
HOP-92 NSCLC
  GI50: 47.9 µM
  TGI: 110 µM
SN12K1 renal
  TGI: > 72.4 µM
BT-549 breast
  TGI: > 125 µM
HCC-2998 colon
  TGI: > 125 µM
SF-268 CNS
  GI50: 58.6 µM
  TGI: 108 µM
SF-539 CNS
  GI50: 5.29 µM
  TGI: 95.8 µM
SN12C renal
  GI50: 44.8 µM
  TGI: > 125 µM
MALME-3M melanoma
  TGI: > 125 µM
OVCAR-4 ovarian
  TGI: > 125 µM
UO-31 renal
  GI50: 44 µM
  TGI: > 125 µM
SNB-19 CNS
  GI50: 60.6 µM
  TGI: 124 µM
NCI-H226 lung
  GI50: 36.8 µM
  TGI: > 117 µM
ACHN renal
  GI50: 34 µM
  TGI: > 125 µM
RXF 393 renal
  TGI: 102 µM
NCI/ADR-RES ovarian
  TGI: > 125 µM
CCRF-CEM leukemia
  GI50: 37.6 µM
  TGI: > 90 µM
UACC-257 melanoma
  GI50: 67.5 µM
  TGI: > 125 µM
IGROV1 ovarian
  GI50: 51 µM
  TGI: 123 µM
A549 NSCLC
  TGI: > 125 µM
SF-295 CNS
  GI50: 32.2 µM
  TGI: > 116 µM
MCF7 breast
  TGI: > 78.9 µM
MOLT-4 leukemia
  GI50: 19.2 µM
  TGI: 96.5 µM and 58.2 µM
SK-OV-3 ovarian
  GI50: 46.5 µM
  TGI: > 122 µM
DLD-1 colon
  TGI: > 125 µM
SNB-78 CNS
  TGI: > 79.4 µM
HCT-116 colon
  GI50: 29.7 µM
  TGI: > 125 µM
NCI-H23 lung
  TGI: > 125 µM
